# Laboratory results reported in PMC10126264, “Synergistic effect and antibiofilm activity of the antimicrobial peptide K11 with conventional antibiotics against multidrug-resistant and extensively drug-resistant Klebsiella pneumoniae” (Frontiers in Cellular and Infection Microbiology, 2023).
# Where two headings read alike, the source gives them in different places. Residues, ends and D or L forms follow the SMILES beside them.
# Assays:
# [1] = system: K. pneumoniae ATCC BAA-1706
# Method: (§1) The effects of various cations and serum on the antimicrobial activity of K11 were investigated against K. pneumoniae ATCC 70063 and K. pneumoniae ATCC BAA-1706 by the MIC assay, as described above. For salt stability, 2 mg/mL of K11 was dissolved in solutions containing different salts at their physiological concentrations; NaCl (100, 150, and 200 mM), MgCl2 (0.5, 1 and 2 mM), and FeCl3 (1, 4, and 8 mM), then incubated for 1 h at 37°C. Subsequently, serially 2-fold diluted K11 solutions were prepared in CAMHB, and aliquots of each peptide solution were added to a 96-well plate. An equal volume of bacterial suspension was added, and the mixtures were incubated at 37°C for 20-24 h ([Ko et al., 2019]). For serum stability, 2 mg/mL of K11 was prepared in solution with 25% and 50% FBS and incubated for 1 h at 37°C, then heat […] for 30 min at 60°C. A series of 2-fold dilutions of K11 were performed in CAMHB and transferred to a 96-well plate. The diluted bacterial suspension was added to the well, and mixtures were incubated for 20-24 h at 37°C ([Oliva et al., 2018]). The antimicrobial activity was determined by measuring the MICs.
# K. pneumoniae ATCC 70063 [2] = system: K. pneumoniae ATCC 70063
# Method: as §1
# K. pneumoniae ATCC 70063 [3] = system: K. pneumoniae ATCC 70063; remark: listed apart in the source
# [4] = system: K. pneumoniae ATCC BAA-1706; remark: listed apart in the source
# Method: The ability of K11 to inhibit bacterial growth was determined by the broth microdilution method ([Clinical and Laboratory Standards Institute, 2018]). Briefly, a series of 2-fold dilutions of K11 were prepared from 1,024 to 2 µg/mL in cation-adjusted Mueller-Hinton broth (CAMHB), Then 50 µL of each peptide dilution was added to each well of polystyrene 96-well U-bottom microplates. The log-phase cultures were adjusted to 0.5 McFarland standard and diluted 1:100 in CAMHB to provide the density of 10^6 CFU/mL. Consequently, 50 µL of diluted bacterial suspension was added to wells containing 50 µL of peptide solution, followed by incubation for 20-24 h at 37°C. […] To evaluate MBC, a volume of 10 μL was taken from each well with no visible growth, inoculated on Mueller-Hinton agar (MHA) plates, and incubated at 37°C. The MBC was defined as the lowest concentration of antimicrobials that killed at least 99.9% of the initial inoculums ([Clinical and Laboratory Standards Institute, 1999]).
# [5] = murine excision model; ref Rishi et al., 2018; cited from earlier work
# Excerpt: The pH and thermal stability of AMPs are essential for their preparation, processing, and storage ([Zong et al., 2016]). At the same time, the stability of AMPs in serum and under physiological salt conditions is also crucial when administrating AMPs in vivo ([Rodríguez et al., 2021]).
# [6] = ref Jin-Jiang et al., 2012; cited from earlier work
# Excerpt: K11 is a synthetic peptide derived from natural AMPs (cecropin A1, melittin, and maganin 2), composed of 20 amino acids ([…]-NH2). […] Moreover, K11 has also been successfully used in vivo as a topic hydrogel solution against Acinetobacter baumannii-infected wounds ([Rishi et al., 2018]).
# [7] = system: K. pneumoniae ATCC BAA-1706; remark: listed apart in the source
# Method: (§2) The temperature and pH stabilities of K11 were evaluated by the MIC assay, as mentioned above. To assess the thermal stability, Aliquots of 2 mg/mL of K11 in sterile deionized water were incubated for 1 h at 25°C, 37°C, 50°C, 70°C, and 90°C. Then, a series of 2-fold dilutions of K11 were prepared in CAMHB, 50 µL of each peptide solution was transferred to the well of a 96-well microplate. An equal volume of K. pneumoniae ATCC 70063 or K. pneumoniae ATCC BAA-1706 (10^6 CFU/mL) suspension was added, and the mixture was incubated at 37°C for 20-24 h ([Li et al., 2021]). To examine the pH stability, the pH was adjusted to range from 2.0 to 10.0 with the following 100 mM buffers: glycine-HCl buffer (pH 2.0), sodium acetate buffer (pH 4.0), sodium phosphate buffer (pH 6.0), Tris-HCl buffer (pH 8.0), and glycine-NaOH buffer (pH 10.0). Then, 2 mg/mL of K11 was prepared in buffers with different pH values (pH 2.0-10.0) and incubated for 1 h at 37°C. Afterward, the pH of the reaction solution was neutralized by HCl or NaOH to terminate the reaction. The serially diluted peptide solutions were conducted, then treated against the tested strains, and the mixtures were incubated at 37°C for 20-24 h ([Cao et al., 2015]; [Zong et al., 2016]). The MICs were observed.
# K. pneumoniae ATCC 70063 [8] = system: K. pneumoniae ATCC 70063; remark: listed apart in the source
# Method: as §2
# [9] = K11 2 mg/mL in 25% FBS, 1 h at 37°C, then 30 min at 60°C, then MIC in CAMHB
# [10] = K11 2 mg/mL in 50% FBS, 1 h at 37°C, then 30 min at 60°C, then MIC in CAMHB
# [11] = broth microdilution in CAMHB, 20-24 h at 37°C
# [12] = wells with no visible growth plated on MHA, 37°C, kills at least 99.9% of inoculum
# [13] = K11 2 mg/mL in 100 mM Tris-HCl buffer pH 8.0, 1 h at 37°C, neutralized, then MIC
# [14] = K11 2 mg/mL in 100 mM glycine-HCl buffer pH 2.0, 1 h at 37°C, neutralized, then MIC
# [15] = K11 2 mg/mL in 100 mM glycine-NaOH buffer pH 10.0, 1 h at 37°C, neutralized, then MIC
# [16] = K11 2 mg/mL in 100 mM sodium acetate buffer pH 4.0, 1 h at 37°C, neutralized, then MIC
# [17] = K11 2 mg/mL in 100 mM sodium phosphate buffer pH 6.0, 1 h at 37°C, neutralized, then MIC
# [18] = K11 2 mg/mL in sterile deionized water incubated 1 h at 25°C (control), then MIC in CAMHB
# [19] = K11 2 mg/mL in sterile deionized water incubated 1 h at 37°C, then MIC in CAMHB
# [20] = K11 2 mg/mL in sterile deionized water incubated 1 h at 50°C, then MIC in CAMHB
# [21] = K11 2 mg/mL in sterile deionized water incubated 1 h at 70°C, then MIC in CAMHB
# [22] = K11 2 mg/mL in sterile deionized water incubated 1 h at 90°C, then MIC in CAMHB
structure (smiles),measurement,setting,value
CC[C@H](C)[C@H](NC(=O)[C@H](Cc1ccccc1)NC(=O)[C@H](CO)NC(=O)[C@H](CCCCN)NC(=O)[C@H](Cc1c[nH]c2ccccc12)NC(=O)[C@@H](N)CCCCN)C(=O)N[C@@H](CCCCN)C(=O)N[C@@H](CCCCN)C(=O)N[C@@H](CC(C)C)C(=O)N[C@H](C(=O)N[C@@H](CCCCN)C(=O)N[C@@H](CCCCN)C(=O)N[C@@H](Cc1ccccc1)C(=O)N[C@@H](CC(C)C)C(=O)N[C@@H](Cc1c[nH]cn1)C(=O)N[C@@H](CO)C(=O)N[C@@H](C)C(=O)N[C@@H](CCCCN)C(=O)N[C@@H](CCCCN)C(=O)N[C@@H](Cc1ccccc1)C(N)=O)[C@@H](C)O [K11] (H-KWKSFIKKLTKKFLHSAKKF-NH2),Antimicrobial activity MIC,[1]; 0% FBS (control),2 µg/mL
same,Antimicrobial activity MIC,[1]; [9],2 µg/mL
same,Antimicrobial activity MIC,[1]; [10],2 µg/mL
same,Antimicrobial activity MIC,K. pneumoniae ATCC 70063 [2]; 0% FBS (control),4 µg/mL
same,Antimicrobial activity MIC,K. pneumoniae ATCC 70063 [2]; [9],4 µg/mL
same,Antimicrobial activity MIC,K. pneumoniae ATCC 70063 [2]; [10],4 µg/mL
same,MIC,K. pneumoniae ATCC 70063 [3]; [11],4 µg/mL
same,MBC,K. pneumoniae ATCC 70063 [3]; [12],4 µg/mL
same,MIC,[4]; [11],2 µg/mL
same,MBC,[4]; [12],2 µg/mL
same,cytotoxicity,[5],no cytotoxicity
same,hemolytic activity,[6],no hemolytic activity
same,Antimicrobial activity MIC,[7]; [13],2 µg/mL
same,Antimicrobial activity MIC,[7]; [14],2 µg/mL
same,Antimicrobial activity MIC,[7]; [15],2 µg/mL
same,Antimicrobial activity MIC,[7]; [16],2 µg/mL
same,Antimicrobial activity MIC,[7]; [17],2 µg/mL
same,Antimicrobial activity MIC,[7]; [18],2 µg/mL
same,Antimicrobial activity MIC,[7]; [19],2 µg/mL
same,Antimicrobial activity MIC,[7]; [20],2 µg/mL
same,Antimicrobial activity MIC,[7]; [21],2 µg/mL
same,Antimicrobial activity MIC,[7]; [22],2 µg/mL
same,Antimicrobial activity MIC,[7]; pH 7 (control),2 µg/mL
same,Antimicrobial activity MIC,K. pneumoniae ATCC 70063 [8]; [13],4 µg/mL
same,Antimicrobial activity MIC,K. pneumoniae ATCC 70063 [8]; [14],4 µg/mL
same,Antimicrobial activity MIC,K. pneumoniae ATCC 70063 [8]; [15],4 µg/mL
same,Antimicrobial activity MIC,K. pneumoniae ATCC 70063 [8]; [16],4 µg/mL
same,Antimicrobial activity MIC,K. pneumoniae ATCC 70063 [8]; [17],4 µg/mL
same,Antimicrobial activity MIC,K. pneumoniae ATCC 70063 [8]; [18],4 µg/mL
same,Antimicrobial activity MIC,K. pneumoniae ATCC 70063 [8]; [19],4 µg/mL
same,Antimicrobial activity MIC,K. pneumoniae ATCC 70063 [8]; [20],4 µg/mL
same,Antimicrobial activity MIC,K. pneumoniae ATCC 70063 [8]; [21],4 µg/mL
same,Antimicrobial activity MIC,K. pneumoniae ATCC 70063 [8]; [22],4 µg/mL
same,Antimicrobial activity MIC,K. pneumoniae ATCC 70063 [8]; pH 7 (control),4 µg/mL
